Assay results from patent publication US7109323B2, “Formulation of boronic acid compounds” (The United States of America as represented by the …, priority 2001, dated 2006).

Experiments:
Format in all cases: physicochemical
[1] = reconstitution / dissolution of the formulation in aqueous solvents; settings: 0.9% w/v saline, saline or isotonic, thermodynamic from solid; read-out: solubility (concentration dissolved)
Protocol: One sample was reconstituted with 2 mL of water. Dissolution was complete within 1-2 minutes of shaking. The entire solution was transferred to a volumetric flask, diluted, and analyzed by HPLC for content of N-(2-pyrazine)carbonyl-L-phenylalanine-L-leucine boronic acid. The total drug content was 1.09 mg. A second sample was reconstituted with 1 mL of propylene glycol:EtOH:H2O, 40:10:50. Dissolution was complete with 1 minute of shaking. The total drug content was 1.11 mg.
The lyophilized formulation was also reconstituted with 0.9% w/v saline. The lyophilized material dissolved readily at concentrations up to 6 mg/mL.
(§1) The lyophilized product was prepared according to Example 1, and samples (2.5 mg/vial) were reconstituted with 2.5 mL of 0.9% w/v sterile saline. […] No special care was taken to protect the solution from light.

[2] = storage stability determined by HPLC analysis
Protocol: The product was obtained as a white amorphous powder. The product was stable for more than 2 years when stored at −20° C., as determined by HPLC analysis (purity >97%). When stored at 2-8° C., the product was not stable for longer than 3-6 months.
When stored at 2-8° C., the liquid formulation was not stable for longer than 6 months, as determined by HPLC analysis.
The lyophilized product was prepared according to Example 1 and stored at 5° C., ambient temperature, 37° C., and 50° C. Stability was monitored for approximately 18 months by periodically reconstituting a sample and analyzing the entire contents of the bottle by HPLC.
as §1

[3] = dynamic vapor sorption studies; settings: crystalline product

Structure (SMILES)	solubility [1]	time stable on storage ([2]; stored at 2-8° C., HPLC analysis)	time stable on storage ([2]; stored at −20° C., HPLC analysis (purity >97%))	hygroscopicity [3]
CC(C)C[C@H](NC(=O)[C@H](Cc1ccccc1)NC(=O)c1cnccn1)B(O)O [N-(2-pyrazine)carbonyl-L-phenylalanine-L-leucine boronic acid]	< 1 mg/mL	3-6 months	more than 2 years	–
CC(C)C[C@H](NC(=O)[C@H](Cc1ccccc1)NC(=O)c1cnccn1)B1OB([C@H](CC(C)C)NC(=O)[C@H](Cc2ccccc2)NC(=O)c2cnccn2)OB([C@H](CC(C)C)NC(=O)[C@H](Cc2ccccc2)NC(=O)c2cnccn2)O1 [N-(2-pyrazine)carbonyl-L-phenylalanine-L-leucine boroxine]	–	–	–	non-hygroscopic
